Laboratory results from PMC6010138, “Synthesis and carbonic anhydrase I, II, VII, and IX inhibition studies with a series of benzo[d]thiazole-5- and 6-sulfonamides” (Journal of Enzyme Inhibition and Medicinal Chemistry, 2017).

What was measured:
Assay in all cases: stopped-flow CO2 hydrase assay
Type in all cases: biochemical
hCA I = target: T1, hCA I (Homo sapiens, UniProt P00915)
T1 construct: gene CA1; recombinant, obtained in-house; cytosolic isoform

hCA IX = target: T2, hCA IX (Homo sapiens, UniProt Q16790)
T2 construct: gene CA9; recombinant, obtained in-house; transmembrane isoform

hCA VII = target: T3, hCA VII (Homo sapiens, UniProt P43166)
T3 construct: gene CA7; recombinant, obtained in-house; cytosolic isoform
T3 sequence (P43166 whole entry, canonical isoform): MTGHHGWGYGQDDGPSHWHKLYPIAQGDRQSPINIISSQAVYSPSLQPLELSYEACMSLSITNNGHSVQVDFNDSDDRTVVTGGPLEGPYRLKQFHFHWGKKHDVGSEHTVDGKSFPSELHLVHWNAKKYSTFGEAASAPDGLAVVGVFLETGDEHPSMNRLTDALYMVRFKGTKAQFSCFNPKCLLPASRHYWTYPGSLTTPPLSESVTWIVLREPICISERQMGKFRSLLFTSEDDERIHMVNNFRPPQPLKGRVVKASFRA
Source text: stopped-flow CO2 hydrase assay on hCA VII

hCA II = target: T4, hCA II (Homo sapiens, UniProt P00918)
T4 construct: gene CA2; recombinant, obtained in-house; cytosolic isoform
Source text: stopped-flow CO2 hydrase assay on hCA II

T1 sequence (P00915 2-261): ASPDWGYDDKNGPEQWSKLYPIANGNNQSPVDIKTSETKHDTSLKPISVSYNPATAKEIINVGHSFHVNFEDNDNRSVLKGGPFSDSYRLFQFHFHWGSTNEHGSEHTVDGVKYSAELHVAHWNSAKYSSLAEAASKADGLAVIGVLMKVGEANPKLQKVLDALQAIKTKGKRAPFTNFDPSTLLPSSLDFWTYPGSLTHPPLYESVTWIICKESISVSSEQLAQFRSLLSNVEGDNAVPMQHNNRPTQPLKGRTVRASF

Ki (hCA I) | Ki (hCA IX) | Ki (hCA VII) | Ki (hCA II) | SMILES
471 nM | 32.9 nM | 75.4 nM | 70 nM | NC(=S)Nc1ccc(S(N)(=O)=O)cc1 [compound 1, 4-Thioureido-benzenesulfonamide]
84.1 nM | 3.7 nM | 84.2 nM | 33.6 nM | Nc1nc2ccc(S(N)(=O)=O)cc2s1 [compound 2, 2-Aminobenzo[d]thiazole-6-sulfonamide]
917 nM | 296 nM | 75 nM | 149 nM | NC(=S)Nc1cccc(S(N)(=O)=O)c1 [compound 3, 3-Thioureidobenzenesulfonamide]
795 nM | 38.2 nM | 56.5 nM | 369 nM | Nc1nc2cc(S(N)(=O)=O)ccc2s1 [compound 4, 2-Aminobenzo[d]thiazole-5-sulfonamide]
306 nM | 16.2 nM | 31.1 nM | 8.7 nM | Nc1nc2c(Br)cc(S(N)(=O)=O)cc2s1 [compound 5, 2-Amino-4-bromobenzo[d]thiazole-6-sulfonamide]
705 nM | 29.6 nM | 0.8 nM | 7.8 nM | Nc1nc2c(Br)c(S(N)(=O)=O)ccc2s1 [compound 6, 2-Amino-4-bromobenzo[d]thiazole-5-sulfonamide]
606 nM | 212 nM | 92.3 nM | 15.1 nM | Nc1nc2c(I)cc(S(N)(=O)=O)cc2s1 [compound 7, 2-Amino-4-iodobenzo[d]thiazole-6-sulfonamide]
482 nM | 100 nM | 42.2 nM | 51.5 nM | Nc1nc2c(I)c(S(N)(=O)=O)ccc2s1 [compound 8, 2-Amino-4-iodobenzo[d]thiazole-5-sulfonamide]
361 nM | 23.2 nM | 54.4 nM | 20.8 nM | CC(=O)Nc1nc2ccc(S(N)(=O)=O)cc2s1 [compound 9, N-(6-sulfamoylbenzo[d]thiazol-2-yl)acetamide]
2330 nM | 34.4 nM | 80.6 nM | 211 nM | CC(=O)Nc1nc2c(Br)cc(S(N)(=O)=O)cc2s1 [compound 10, N-(4-bromo-6-sulfamoylbenzo[d]thiazol-2-yl)acetamide]
341 nM | 32.6 nM | 81.5 nM | 42 nM | CC(=O)Nc1nc2cc(S(N)(=O)=O)ccc2s1 [compound 11, N-(5-sulfamoylbenzo[d]thiazol-2-yl)acetamide]
97.1 nM | 10 nM | 46.5 nM | 13.5 nM | NS(=O)(=O)c1ccc2nc(NC(=O)c3ccccc3C(=O)O)sc2c1 [compound 12, 2-((6-Sulfamoylbenzo[d]thiazol-2-yl)carbamoyl)benzoic acid]
